Like-named read-outs stand apart in the source and are kept apart here.
Experiments:
[1] = Intensity and duration of fluorescence of probe dilutions bound to caries; details: for fluorescent intensity compared to IR820 (ICG): dilutions 1:10 and 1:100 of 1 mg/mL stock, deep and shallow lesions
Description: Probes were tested for appropriate concentration, kinetics of binding and retention. Intensity of the illumination light, and the size of the illumination light beam were varied, and data were recorded for each probe. […] The concentration of each probe was varied to determine an optimum concentration for binding during a time period suitable for dental use. Durations of contacting were also tested, for example about 10 seconds, about 20 seconds, about 40 seconds, or about 60 seconds. Binding of the probes to the surface of a tooth having different occlusal cavity conditions were also determined, e.g., plaque, gingival, calculus.
See FIG. 10A and FIG. 10B, and FIG. 11A-FIG. 11D.

[2] = Detection probes on interproximal models of extracted human teeth; details: for degree of detection: early stage caries lesion, optical observation; for emission wavelength (nm) / excitation/absorbance wavelength (nm): probe bound to interproximal enamel caries
Description: Interproximal models of extracted human teeth (molars and premolars) were fabricated using silicon impression materials. Interproximal enamel caries at about […] depth and at about 1.5 mm depth were prepared by using areas of interproximal contact regions. The dental preparations having synthetic caries were assessed by radiographic films (bitewings) and a microscope.
A cotton ball was saturated with the detection probe, and placed in contact with the region of the interproximal enamel caries. The bound probe was observed by illuminating over a varying set of different wavelengths of excitation light, followed by detecting light of fluorescent emissions. Furthermore, absorbance of the illuminating wavelengths was detected as appropriate for each probe.
Each tooth preparation having interproximal enamel caries and bound probe was illuminated and photographed.

[3] = hydrogen peroxide 38%
Description: The efficacy of removal of the probe by the solution was determined by criteria such as extent of fluorescence remaining on a tooth after rinse, or fluorescence extracted from hydroxyapatite into a rinse solution.

[4] = Removal of OsteoSense 750 from hydroxyapatite, spectrophotometry at 750 nm; details: hydrogen peroxide 30%, phosphoric acid 40%
Description: The tubes were vortexed, and the mixture was allowed to settle to obtain a supernatant. Each supernatant was collected and analyzed for probe content using a spectrophotomer.
The HA sample was washed with PBS and a spectrophotometric scan of the wash solution was performed.

[5] = RFU comparison of solutions to release OsteoSense 750 from HA
Description: Variables included conditions of pH, temperature, and presence of 1% calcium chloride.
Three conditions were tested: incubation for 15 minutes at 37° C. after vortexing; adjusting pH to 6.5 at 23° C. after vortexing; and addition of 1% calcium chloride to each solution and incubation at room temperature after vortexing.

[6] = 1% solution with calcium chloride (1%), room temperature
[7] = 1% solution, 15 minutes at 37° C.
[8] = 1% solution, pH 6.5, room temperature
[9] = 5% solution with calcium chloride (1%), room temperature
[10] = 5% solution, 15 minutes at 37° C.
[11] = 5% solution, pH 6.5, room temperature
[12] = 10% solution with calcium chloride (1%), room temperature
[13] = 10% solution, 15 minutes at 37° C.
[14] = 10% solution, pH 6.5, room temperature
[15] = 20% solution with calcium chloride (1%), room temperature
[16] = 20% solution, 15 minutes at 37° C.
[17] = 20% solution, pH 6.5, room temperature

With `CC1(C)C(/C=C/C=C/C=C/C=C2\N(CCCCS(=O)(=O)[O-])c3ccc4ccccc4c3C2(C)C)=[N+](CCCCS(=O)(=O)[O-])c2ccc3ccccc3c21.[Na+]` [CardioGreen (ICG)] as the compound, how does the “fluorescent intensity compared to IR820 (ICG)” value [1] read?
The value was “greater fluorescent intensity at each concentration and lesion depth compared to IR820 (ICG)”.

What about the degree of detection [2] of the same compound?
The degree of detection was “Good”.

What about the “emission wavelength (nm)” value [2] of the same compound?
Its value is 820-870 nm.

What about the “excitation/absorbance wavelength (nm)” value [2] of the same compound?
Its value is 750-800 nm.

Which results are given for `CC1(C)C(/C=C/C=C/C=C/C=C2\N(CCCCS(=O)(=O)O)c3ccc4ccccc4c3C2(C)C)=[N+](CCCCS(=O)(=O)[O-])c2ccc3ccccc3c21` [Indocyanine Green]?
degree of detection [2]: Weak; emission wavelength (nm) [2]: 835 nm; excitation/absorbance wavelength (nm) [2]: 800 nm

For `C1=Cc2cc3ccc(cc4nc(cc5ccc(cc1n2)[nH]5)C=C4)[nH]3` [Porphyrin], which degree of detection [2] is on record?
Its degree of detection is “Good”.

What about the “emission wavelength (nm)” value [2] of the same compound?
Its value is 700 nm.

What about the “excitation/absorbance wavelength (nm)” value [2] of the same compound?
Its value is 600 nm.

And the “optical observation of early stage caries lesion with bound probe (photograph)” value ([2]; tooth preparation illuminated and photographed)?
The value was “Fluorescence of an early stage caries lesion was observed”.

Which “fluorescence of OsteoSense 750 bound to caries lesion after application with a syringe” value [3] does the source give for `OO` [hydrogen peroxide] here?
The value was “eliminated fluorescence”.

What about the “fluorescence of OsteoSense 750 bound to the tooth after rinse” value ([3]; ten minutes after application) of the same compound?
The value was “substantially eliminated”.

What about the “fluorescence of OsteoSense 750 bound to the tooth after rinse” value ([3]; three minutes after application) of the same compound?
Its value is “substantially reduced”.

And the “spectrometric signal at 750 nm in supernatant (release of OsteoSense 750 from HA)” value [4]?
The value was “no signal at 750 nm”.

What does the source list for `O=P(O)(O)O` [phosphoric acid (PA), phosphoric acid]?
% released of total OsteoSense [5, 6]: 1.01%; % released of total reference value [5, 6]: 2.27%; Raw RFU value [5, 6]: 0.38 RFU; % released of total OsteoSense [5, 7]: 4.61%; % released of total reference value [5, 7]: 7.36%; Raw RFU value [5, 7]: 1.73 RFU; % released of total OsteoSense [5, 8]: 6.17%; % released of total reference value [5, 8]: 18.74%; Raw RFU value [5, 8]: 2.31 RFU; % released of total OsteoSense [5, 9]: 9.44%; % released of total reference value [5, 9]: 40.79%; Raw RFU value [5, 9]: 3.54 RFU; % released of total OsteoSense [5, 10]: 9.78%; % released of total reference value [5, 10]: 18.94%; Raw RFU value [5, 10]: 3.67 RFU; % released of total OsteoSense [5, 11]: 28.38%; % released of total reference value [5, 11]: 39.54%; Raw RFU value [5, 11]: 10.64 RFU; % released of total OsteoSense [5, 12]: 10.57%; % released of total reference value [5, 12]: 43.29%; Raw RFU value [5, 12]: 3.97 RFU; % released of total OsteoSense [5, 13]: 4.37%; % released of total reference value [5, 13]: 9.10%; Raw RFU value [5, 13]: 1.64 RFU; % released of total OsteoSense [5, 14]: 45.32%; % released of total reference value [5, 14]: 67.03%; Raw RFU value [5, 14]: 17.00 RFU; % released of total OsteoSense [5, 15]: 5.12%; % released of total reference value [5, 15]: 11.99%; Raw RFU value [5, 15]: 1.92 RFU; % released of total OsteoSense [5, 16]: 3.54%; % released of total reference value [5, 16]: 8.51%; Raw RFU value [5, 16]: 1.33 RFU; % released of total OsteoSense [5, 17]: 25.34%; % released of total reference value [5, 17]: 39.91%; Raw RFU value [5, 17]: 9.50 RFU; spectrometric signal at 750 nm in supernatant (release of OsteoSense 750 from HA) [4]: definite peak at 750 nm

Which results are given for cyanine dye 7 [Cy7]?
retained fluorescence intensity compared to CardioGreen (ICG) diluted 1:10 ([1]; diluted 1:10, deep and shallow lesions): much greater intensity in both deep and shallow lesions; fluorescent intensity compared to IR820 (ICG) [1]: greater fluorescent intensity at each concentration and lesion depth compared to IR820 (ICG); emission wavelength (nm) [2]: 760-800 nm; excitation/absorbance wavelength (nm) [2]: 700-770 nm

From patent US20140093457A1, “Compositions, methods and kits for remineralization and inhibition of dental caries in teeth” (President and Fellows of Harvard College, priority 2010, published 2014)
